US20250262201A1, “COMPOUNDS AND METHODS USEFUL FOR STABILIZING PHENYLALANINE HYDROXYLASE MUTATIONS” (Agios Pharmaceuticals, Inc., priority 2022, published 2025)

Biological target: T1, human PAH with the R408W mutation (Homo sapiens, UniProt P00439, R408W)
T1 construct: expressed in transfected cells
T1 sequence (P00439 1-452 R408W): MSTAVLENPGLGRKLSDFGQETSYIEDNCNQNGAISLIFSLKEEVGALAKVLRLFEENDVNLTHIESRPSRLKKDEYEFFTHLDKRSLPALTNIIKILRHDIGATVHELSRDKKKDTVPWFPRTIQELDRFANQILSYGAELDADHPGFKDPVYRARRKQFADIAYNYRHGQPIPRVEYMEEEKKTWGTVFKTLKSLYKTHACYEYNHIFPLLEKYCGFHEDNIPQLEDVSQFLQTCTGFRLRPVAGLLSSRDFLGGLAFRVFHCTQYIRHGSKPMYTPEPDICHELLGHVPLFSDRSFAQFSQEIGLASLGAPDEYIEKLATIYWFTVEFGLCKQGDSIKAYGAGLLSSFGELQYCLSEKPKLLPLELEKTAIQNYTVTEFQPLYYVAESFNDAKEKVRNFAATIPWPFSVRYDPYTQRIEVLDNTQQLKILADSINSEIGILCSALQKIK
Experiment: Cell Based Phenylalanine Flux Assay
Settings: A375 cells expressing human R408W PAH; 24 hrs compound incubation; 13C-Tyrosine by LC-MS; average where tested multiple times; read-out: AC50

SMILES | AC50
O=C(c1nnc(-c2ccc(C(F)(F)F)cn2)o1)N1CCc2[nH]cnc2[C@H]1c1cc2ccccc2cn1 [Example 442, (R)-(4-(isoquinolin-3-yl)-6,7-dihydro-1H-imidazo[4,5-c]pyridin-5(4H)-yl)(5-(5-(trifluoromethyl)pyridin-2-yl)-1,3,4-oxadiazol-2-yl)methanone] | < 500 nM
Cn1cnc(-c2nnc(C(=O)N3CCc4[nH]cnc4[C@H]3c3cc4ccccc4cn3)o2)c1 [Example 443, (R)-(4-(isoquinolin-3-yl)-6,7-dihydro-1H-imidazo[4,5-c]pyridin-5(4H)-yl)(5-(1-methyl-1H-imidazol-4-yl)-1,3,4-oxadiazol-2-yl)methanone] | < 500 nM
Cn1cncc1-c1nnc(C(=O)N2CCc3[nH]cnc3[C@H]2c2cc3ccccc3cn2)o1 [Example 444, (R)-(4-(isoquinolin-3-yl)-6,7-dihydro-1H-imidazo[4,5-c]pyridin-5(4H)-yl)(5-(1-methyl-1H-imidazol-5-yl)-1,3,4-oxadiazol-2-yl)methanone] | 500 to 1000 nM
O=C(c1nnc(-c2cccnc2)o1)N1CCc2[nH]cnc2[C@H]1c1cc2ccccc2cn1 [Example 445, (R)-(4-(isoquinolin-3-yl)-6,7-dihydro-1H-imidazo[4,5-c]pyridin-5(4H)-yl)(5-(pyridin-3-yl)-1,3,4-oxadiazol-2-yl)methanone] | < 500 nM
Cc1c(-c2nnc(C(=O)N3CCc4[nH]cnc4[C@H]3c3cc4ccccc4cn3)o2)cnn1C [Example 446, (R)-(5-(1,5-dimethyl-1H-pyrazol-4-yl)-1,3,4-oxadiazol-2-yl)(4-(isoquinolin-3-yl)-6,7-dihydro-1H-imidazo[4,5-c]pyridin-5(4H)-yl)methanone] | < 500 nM
Cn1nccc1-c1nnc(C(=O)N2CCc3[nH]cnc3[C@H]2c2cc3ccccc3cn2)o1 [Example 447, (R)-(4-(isoquinolin-3-yl)-6,7-dihydro-1H-imidazo[4,5-c]pyridin-5(4H)-yl)(5-(1-methyl-1H-pyrazol-5-yl)-1,3,4-oxadiazol-2-yl)methanone] | < 500 nM
O=C(c1nnc(-c2ccncc2)o1)N1CCc2[nH]cnc2[C@H]1c1cc2ccccc2cn1 [Example 448, (R)-(4-(isoquinolin-3-yl)-6,7-dihydro-1H-imidazo[4,5-c]pyridin-5(4H)-yl)(5-(pyridin-4-yl)-1,3,4-oxadiazol-2-yl)methanone] | < 500 nM
O=C(c1nnc(-c2cnn(C3CCC3)c2)o1)N1CCc2[nH]cnc2[C@H]1c1cc2ccccc2cn1 [Example 449, (R)-(5-(1-cyclobutyl-1H-pyrazol-4-yl)-1,3,4-oxadiazol-2-yl)(4-(isoquinolin-3-yl)-6,7-dihydro-1H-imidazo[4,5-c]pyridin-5(4H)-yl)methanone] | < 500 nM
Cc1nn(C)cc1-c1nnc(C(=O)N2CCc3[nH]cnc3[C@H]2c2cc3ccccc3cn2)o1 [Example 450, (R)-(5-(1,3-dimethyl-1H-pyrazol-4-yl)-1,3,4-oxadiazol-2-yl)(4-(isoquinolin-3-yl)-6,7-dihydro-1H-imidazo[4,5-c]pyridin-5(4H)-yl)methanone] | < 500 nM
O=C(c1nnc(-c2cc[nH]n2)o1)N1CCc2[nH]cnc2[C@H]1c1cc2ccccc2cn1 [Example 451, (R)-(5-(1H-pyrazol-3-yl)-1,3,4-oxadiazol-2-yl)(4-(isoquinolin-3-yl)-6,7-dihydro-1H-imidazo[4,5-c]pyridin-5(4H)-yl)methanone] | < 500 nM
O=C(c1cnn2cc(C3CC3)ccc12)N1CCc2[nH]cnc2[C@H]1c1cc2ccccc2cn1 [Example 452, (R)-(6-cyclopropylpyrazolo[1,5-a]pyridin-3-yl)(4-(isoquinolin-3-yl)-6,7-dihydro-1H-imidazo[4,5-c]pyridin-5(4H)-yl)methanone] | < 500 nM
COCCc1ccc2c(C(=O)N3CCc4[nH]cnc4[C@H]3c3cc4ccccc4cn3)cnn2c1 [Example 453, (R)-(4-(isoquinolin-3-yl)-6,7-dihydro-1H-imidazo[4,5-c]pyridin-5(4H)-yl)(6-(2-methoxyethyl)pyrazolo[1,5-a]pyridin-3-yl)methanone] | < 500 nM
O=C(c1nnc(-c2cn[nH]c2)o1)N1CCc2[nH]cnc2[C@H]1c1cc2ccccc2cn1 [Example 454, (R)-(5-(1H-pyrazol-4-yl)-1,3,4-oxadiazol-2-yl)(4-(isoquinolin-3-yl)-6,7-dihydro-1H-imidazo[4,5-c]pyridin-5(4H)-yl)methanone] | 500 to 1000 nM
Cc1cnn(C)c1-c1nnc(C(=O)N2CCc3[nH]cnc3[C@H]2c2cc3ccccc3cn2)o1 [Example 455, (R)-(5-(1,4-dimethyl-1H-pyrazol-5-yl)-1,3,4-oxadiazol-2-yl)(4-(isoquinolin-3-yl)-6,7-dihydro-1H-imidazo[4,5-c]pyridin-5(4H)-yl)methanone] | < 500 nM
Cn1cc(-c2ccc3c(C(=O)N4CCc5[nH]cnc5[C@H]4c4cc5ccccc5cn4)cnn3c2)cn1 [Example 456, (R)-(4-(isoquinolin-3-yl)-6,7-dihydro-1H-imidazo[4,5-c]pyridin-5(4H)-yl)(6-(1-methyl-1H-pyrazol-4-yl)pyrazolo[1,5-a]pyridin-3-yl)methanone] | < 500 nM
CN1CCN(c2ccc3c(C(=O)N4CCc5[nH]cnc5[C@H]4c4cc5ccccc5cn4)cnn3c2)CC1 [Example 457, (R)-(4-(isoquinolin-3-yl)-6,7-dihydro-1H-imidazo[4,5-c]pyridin-5(4H)-yl)(6-(4-methylpiperazin-1-yl)pyrazolo[1,5-a]pyridin-3-yl)methanone] | < 500 nM
O=C(c1cnn2cc(N3CCOCC3)ccc12)N1CCc2[nH]cnc2[C@H]1c1cc2ccccc2cn1 [Example 458, (R)-(4-(isoquinolin-3-yl)-6,7-dihydro-1H-imidazo[4,5-c]pyridin-5(4H)-yl)(6-morpholinopyrazolo[1,5-a]pyridin-3-yl)methanone] | < 500 nM
O=C(c1cnn2cc(Br)c(Cl)cc12)N1CCc2[nH]cnc2[C@H]1c1cc2ccccc2cn1 [Example 459, (R)-(6-bromo-5-chloropyrazolo[1,5-a]pyridin-3-yl)(4-(isoquinolin-3-yl)-6,7-dihydro-1H-imidazo[4,5-c]pyridin-5(4H)-yl)methanone] | < 500 nM
COc1ccc2c(C(=O)N3CCc4[nH]cnc4[C@H]3c3cc4ccccc4cn3)cnn2c1 [Example 460, (R)-(4-(isoquinolin-3-yl)-6,7-dihydro-1H-imidazo[4,5-c]pyridin-5(4H)-yl)(6-methoxypyrazolo[1,5-a]pyridin-3-yl)methanone] | < 500 nM
O=C(c1cnn2cc(-c3ccccn3)ccc12)N1CCc2[nH]cnc2[C@H]1c1cc2ccccc2cn1 [Example 461, (R)-(4-(isoquinolin-3-yl)-6,7-dihydro-1H-imidazo[4,5-c]pyridin-5(4H)-yl)(6-(pyridin-2-yl)pyrazolo[1,5-a]pyridin-3-yl)methanone] | < 500 nM
O=C(c1cnn2ccc(Cl)cc12)N1CCc2[nH]cnc2[C@H]1c1cc2ccccc2cn1 [Example 462, (R)-(5-chloropyrazolo[1,5-a]pyridin-3-yl)(4-(isoquinolin-3-yl)-6,7-dihydro-1H-imidazo[4,5-c]pyridin-5(4H)-yl)methanone] | < 500 nM
O=C(c1cnn2cc(N3CCOCC3)c(Cl)cc12)N1CCc2[nH]cnc2[C@H]1c1cc2ccccc2cn1 [Example 463, (R)-(5-chloro-6-morpholinopyrazolo[1,5-a]pyridin-3-yl)(4-(isoquinolin-3-yl)-6,7-dihydro-1H-imidazo[4,5-c]pyridin-5(4H)-yl)methanone] | < 500 nM
CN1CCN(c2cn3ncc(C(=O)N4CCc5[nH]cnc5[C@H]4c4cc5ccccc5cn4)c3cc2Cl)CC1 [Example 464, (R)-(5-chloro-6-(4-methylpiperazin-1-yl)pyrazolo[1,5-a]pyridin-3-yl)(4-(isoquinolin-3-yl)-6,7-dihydro-1H-imidazo[4,5-c]pyridin-5(4H)-yl)methanone] | < 500 nM
C[C@@H](O)c1nnc(C(=O)N2CCc3[nH]cnc3[C@H]2c2cc3ccccc3cn2)o1 [Example 465, (5-((R)-1-hydroxyethyl)-1,3,4-oxadiazol-2-yl)((R)-4-(isoquinolin-3-yl)-6,7-dihydro-1H-imidazo[4,5-c]pyridin-5(4H)-yl)methanone] | 500 to 1000 nM
Cc1ccc2c(C(=O)N3CCc4[nH]cnc4[C@H]3c3cc4ccccc4cn3)cnn2c1 [Example 466, (R)-(4-(isoquinolin-3-yl)-6,7-dihydro-1H-imidazo[4,5-c]pyridin-5(4H)-yl)(6-methylpyrazolo[1,5-a]pyridin-3-yl)methanone] | < 500 nM
O=C(c1cnn2cc(Cl)ccc12)N1CCc2[nH]cnc2[C@H]1c1cc2ccccc2cn1 [Example 467, (R)-(6-chloropyrazolo[1,5-a]pyridin-3-yl)(4-(isoquinolin-3-yl)-6,7-dihydro-1H-imidazo[4,5-c]pyridin-5(4H)-yl)methanone] | < 500 nM
CN(C)CCc1ccc2c(C(=O)N3CCc4[nH]cnc4[C@H]3c3cc4ccccc4cn3)cnn2c1 [Example 468, (R)-(6-(2-(dimethylamino)ethyl)pyrazolo[1,5-a]pyridin-3-yl)(4-(isoquinolin-3-yl)-6,7-dihydro-1H-imidazo[4,5-c]pyridin-5(4H)-yl)methanone] | < 500 nM
O=C(c1nnc(-c2cnccn2)o1)N1CCc2[nH]cnc2[C@H]1c1cc2ccccc2cn1 [Example 469, (R)-(4-(isoquinolin-3-yl)-6,7-dihydro-1H-imidazo[4,5-c]pyridin-5(4H)-yl)(5-(pyrazin-2-yl)-1,3,4-oxadiazol-2-yl)methanone] | < 500 nM
